Assay results taken from patent publication US20260234149A1, “FUSED BICYCLIC COMPOUND” (CHIA TAI TIANQING PHARMACEUTICAL GROUP CO., LTD., priority 2022, published 2026).

Assays:
[1] = system: MDA-MB-436 cells; assay: Assay on inhibitory activity for MDA-MB-436 cell proliferation (CCK-8); assay type: cell-based; settings: 168 h incubation, CCK-8, absorbance at 450 nm
Description: 1.1 Assay on inhibitory activity for MDA-MB-436 cell proliferation MDA-MB-436 cells in a good growth state were collected into a centrifuge tube, adjusted to a cell density of 2×10^4 cells/mL using a complete medium (DMEM high glucose+[…]+1× insulin-transferrin-selenium (JTS-G)+16 μg/mL reduced glutathione), and seeded in a 96-well plate (100 μL/well), and the plate was incubated overnight in a cell incubator Compounds were added using a pipettor, such that the final concentrations of the compounds were 400 nM-0.02 nM. The wells were set in duplicate, and a control well was set. After 168 h of incubation in the cell incubator, the assay reagent CCK-8 (manufacturer: Dojindo Laboratories, Beijing; 10 μL/well) was added. After 1.5 h of incubation in the cell incubator, the absorbance was measured at 450 nm on a PerkinElmer Envision microplate reader.

[2] = biological target: T1, PARP1 (Homo sapiens, UniProt P09874); assay: PARP1-Tracer activity assay (FP method); assay type: binding
T1 construct: purchased BPS 80551
Description: (§1) The enzyme inhibition activity of the compounds against PARP1/2-Tracer was tested using the FP method. First, 100 nL of inhibitors with a final concentration of 1% DMSO were transferred to a 384-well reaction plate (Corning 4514) using Echo655. Then, 5 μL of PARP1/2 (BPS, Cat #80501/80502) enzyme solution was added to each well, followed by centrifugation at 1000 RPM for 1 min at room temperature, and the reaction was allowed to proceed for 10 min. Subsequently, 5 μL of Tracer (ICE, Cat #001315-009) solution was added to each well, followed by centrifugation at 1000 RPM for 1 min at room temperature, and the reaction was allowed to proceed for 60 min. PARP1/2 and Tracer were prepared in a buffer containing 50 mM Tris (pH 8.0), 10 mM MgCl2, 150 mM NaCl, and 0.001% Triox-100, with final concentrations of 5/10 nM and 2.5 nM, respectively. Finally, the FP signal was read using BMG (PHERAstar FSX), and the IC50 values and nonlinear regression curve fitting were obtained using GraphPad Prism software.

[3] = biological target: T1, PARP1; assay: Assay on PARP1 protein activity (chemiluminescence assay kit); assay type: biochemical; settings: PARP1 enzyme, 1 h room temperature
[4] = biological target: T2, PARP2 (Homo sapiens, UniProt Q9UGN5); assay: PARP2-Tracer activity assay (FP method); assay type: binding
T2 construct: purchased BPS 80502
Description: as §1

T1 sequence (P09874 whole entry): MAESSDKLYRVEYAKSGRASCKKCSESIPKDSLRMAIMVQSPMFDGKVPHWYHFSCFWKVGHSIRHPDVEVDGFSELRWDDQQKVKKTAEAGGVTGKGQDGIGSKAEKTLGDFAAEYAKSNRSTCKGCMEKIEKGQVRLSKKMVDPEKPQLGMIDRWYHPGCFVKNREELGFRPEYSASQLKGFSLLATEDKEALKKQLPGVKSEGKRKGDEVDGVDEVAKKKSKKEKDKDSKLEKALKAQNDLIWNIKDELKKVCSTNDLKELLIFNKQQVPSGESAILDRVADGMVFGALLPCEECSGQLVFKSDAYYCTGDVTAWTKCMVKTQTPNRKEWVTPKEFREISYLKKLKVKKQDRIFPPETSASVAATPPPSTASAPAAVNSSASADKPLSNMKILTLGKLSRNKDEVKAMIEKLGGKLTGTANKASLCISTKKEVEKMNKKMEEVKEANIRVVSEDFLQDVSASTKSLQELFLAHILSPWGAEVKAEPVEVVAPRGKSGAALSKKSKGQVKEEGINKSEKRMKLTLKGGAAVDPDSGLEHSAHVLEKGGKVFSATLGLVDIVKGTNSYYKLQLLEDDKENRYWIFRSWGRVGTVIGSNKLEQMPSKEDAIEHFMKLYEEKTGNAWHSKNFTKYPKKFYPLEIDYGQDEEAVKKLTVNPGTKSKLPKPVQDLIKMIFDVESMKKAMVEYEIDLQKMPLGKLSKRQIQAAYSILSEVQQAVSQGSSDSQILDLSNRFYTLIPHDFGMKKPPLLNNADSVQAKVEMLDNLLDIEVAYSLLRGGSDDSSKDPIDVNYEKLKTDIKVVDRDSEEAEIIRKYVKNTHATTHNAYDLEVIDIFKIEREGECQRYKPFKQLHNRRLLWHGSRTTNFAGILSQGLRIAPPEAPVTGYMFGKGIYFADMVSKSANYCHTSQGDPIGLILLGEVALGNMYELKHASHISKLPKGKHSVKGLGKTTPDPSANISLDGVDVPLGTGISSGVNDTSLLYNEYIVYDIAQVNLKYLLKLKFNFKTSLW
T2 sequence (Q9UGN5 whole entry): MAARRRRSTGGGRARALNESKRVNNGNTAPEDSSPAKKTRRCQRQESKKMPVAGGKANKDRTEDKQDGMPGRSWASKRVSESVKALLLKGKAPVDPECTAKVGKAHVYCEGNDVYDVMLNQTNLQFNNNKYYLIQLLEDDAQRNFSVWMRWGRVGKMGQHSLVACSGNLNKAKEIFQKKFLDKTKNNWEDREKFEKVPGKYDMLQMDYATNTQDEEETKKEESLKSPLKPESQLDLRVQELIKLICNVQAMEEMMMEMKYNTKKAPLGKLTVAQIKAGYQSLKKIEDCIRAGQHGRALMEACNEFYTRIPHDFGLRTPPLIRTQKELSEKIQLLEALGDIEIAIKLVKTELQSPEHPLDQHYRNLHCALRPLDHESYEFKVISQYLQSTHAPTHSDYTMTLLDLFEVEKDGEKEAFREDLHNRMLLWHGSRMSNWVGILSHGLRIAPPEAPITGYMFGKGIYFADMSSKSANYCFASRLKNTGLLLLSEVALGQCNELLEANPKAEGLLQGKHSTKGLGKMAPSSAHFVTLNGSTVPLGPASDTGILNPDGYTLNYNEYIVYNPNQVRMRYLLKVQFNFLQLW

SMILES	IC50 ([1]; Homo sapiens, MDA-MB-436)	also measured
CCc1cc2ncc(CN3CC(N4Cc5nc(C(=O)NC)sc5C4)C3)cc2[nH]c1=O [Compound 7]	≤ 50 nM	–
CCc1cc2ncc(CN3CC(N4Cc5cn(C(=O)NC)nc5C4)C3)cc2[nH]c1=O [Compound 10]	≤ 50 nM	–
CNC(=O)n1cc2c(n1)CN(C1CN(Cc3ccc4cc(C(F)(F)F)c(=O)[nH]c4c3)[C@@H]1C)C2 (single isomer, unassigned) [Compound 35]	–	IC50 [1]: ≤ 50 nM
CCc1cc2ccc(CN3CC(N4Cc5cn(C(=O)NC)nc5C4)C3)cc2[nH]c1=O [Compound 1]	≤ 50 nM	–
CCc1cc2ccc(CN3C[C@@H](N4Cc5cn(C(=O)NC)nc5C4)[C@@H]3C)cc2[nH]c1=O [Compound 39]	≤ 50 nM	–
CNC(=O)n1cc2c(n1)CN(C1CN(Cc3ccc4cc(C(F)(F)F)c(=O)[nH]c4c3)C1)C2 [Compound 24]	–	IC50 [2]: 2.48 nM; IC50 [3]: ≤ 1 nM; IC50 [4]: > 500 nM
CCc1cc2ccc(CN3CC(N4Cc5cn(C(=O)NC(C)C)nc5C4)C3)cc2[nH]c1=O [Compound 9]	≤ 50 nM	–
CCc1cc2ncc(CN3C[C@H](N4Cc5cn(C(=O)NC)nc5C4)[C@@H]3C)cc2[nH]c1=O [Compound 47]	–	IC50 [1]: ≤ 50 nM
CNC(=O)n1cc2c(n1)CN([C@@H]1CN(Cc3ccc4cc(C5CC5)c(=O)[nH]c4c3)[C@H]1C)C2 [Compound 43]	≤ 50 nM	–
CCc1cc2c(F)cc(CN3CC(N4Cc5cn(C(=O)NC)nc5C4)C3)cc2[nH]c1=O [Compound 16]	≤ 50 nM	–
CCNC(=O)n1cc2c(n1)CN(C1CN(Cc3ccc4cc(CC)c(=O)[nH]c4c3)C1)C2 [Compound 13]	≤ 50 nM	–
O=C(NC1CC1)n1cc2c(n1)CN(C1CN(Cc3ccc4cc(C5CC5)c(=O)[nH]c4c3)C1)C2 [Compound 11]	≤ 50 nM	–
CNC(=O)n1cc2c(n1)CN(C1CN(Cc3ccc4cc(C5CC5)c(=O)[nH]c4c3)C1)C2 [Compound 2]	–	IC50 [3]: ≤ 1 nM
CCc1cc2ncc(CN3CC(N4Cc5cn(C(=O)NC6CC6)nc5C4)C3)cc2[nH]c1=O [Compound 5]	≤ 50 nM	–
CCc1cc2ccc(CN3CC(N4Cc5cn(C(=O)NC6CC6)nc5C4)C3)cc2[nH]c1=O [Compound 4]	≤ 50 nM	–
[2H]C([2H])([2H])NC(=O)n1cc2c(n1)CN(C1CN(Cc3ccc4cc(CC)c(=O)[nH]c4c3)C1)C2 [Compound 14]	≤ 50 nM	–
CCc1nc2ccc(CN3C[C@H](N4Cc5cn(C(=O)NC)nc5C4)[C@@H]3C)cc2[nH]c1=O [Compound 45]	–	IC50 [2]: 2.52 nM; IC50 [3]: ≤ 1 nM; IC50 [4]: > 500 nM
CNC(=O)n1cc2c(n1)CN(C1CN(Cc3ccc4cc(C(F)(F)F)c(=O)[nH]c4c3)[C@H]1C)C2 (single isomer, unassigned) [Compound 36]	≤ 50 nM	IC50 [3]: ≤ 10 nM
CNC(=O)n1cc2c(n1)CN(C1CN(Cc3ccc4cc(C5CC5)c(=O)[nH]c4c3)[C@@H]1C)C2 (single isomer, unassigned) [Compound 40]	–	IC50 [1]: ≤ 50 nM
CNC(=O)n1cc2c(n1)CN(C1CN(Cc3ccc4c5c(c(=O)[nH]c4c3)CCC5)C1)C2 [Compound 15]	≤ 50 nM	–
